± gives the uncertainty stated by the source.
Experiment: xn = mol fraction of the nth substance listed

CCCCCCC(C)O (stereo not given) + Brc1ccccc1
viscosity [mPa·s], 101 kPa
Settings	298.15 K	303.15 K
x2 = 0.0495	5.76 ± 0.031	4.559 ± 0.026
x2 = 0.1184	4.748 ± 0.027	3.795 ± 0.022
x2 = 0.1814	4.027 ± 0.023	3.25 ± 0.019
x2 = 0.2506	3.367 ± 0.02	2.769 ± 0.016
x2 = 0.2943	3.034 ± 0.018	2.532 ± 0.015
x2 = 0.3711	2.576 ± 0.016	2.178 ± 0.014
x2 = 0.4297	2.285 ± 0.015	1.961 ± 0.013
x2 = 0.5077	1.983 ± 0.013	1.738 ± 0.012
x2 = 0.5834	1.766 ± 0.013	1.554 ± 0.011
x2 = 0.6524	1.587 ± 0.012	1.418 ± 0.011
x2 = 0.7315	1.41 ± 0.011	1.275 ± 0.01
x2 = 0.8025	1.3 ± 0.011	1.174 ± 0.01
x2 = 0.8722	1.192 ± 0.01	1.093 ± 0.01
x2 = 0.9483	1.107 ± 0.01	1.03 ± 0.01

NCCNCCNCCN + CCO
313.15 K, 100 kPa
Settings	viscosity [mPa·s]
x1 = 0.02	0.94 ± 0.06
x1 = 0.034	1.1 ± 0.07
x1 = 0.073	1.47 ± 0.09
x1 = 0.17	2.67 ± 0.16

CC(O)CCO (stereo not given) + O
viscosity [mPa·s]
Settings	298.15 K	303.15 K	308.15 K	313.15 K	318.15 K
101 kPa, x1 = 0.0996	3.694 ± 0.028	3.073 ± 0.024	2.633 ± 0.022	2.297 ± 0.019	2.019 ± 0.018
101 kPa, x1 = 0.1982	8.539 ± 0.06	6.787 ± 0.048	5.587 ± 0.041	4.737 ± 0.035	4.034 ± 0.03
101 kPa, x1 = 0.2991	15.27 ± 0.1	11.94 ± 0.08	9.627 ± 0.066	8.017 ± 0.056	6.671 ± 0.047
101 kPa, x1 = 0.4036	23.16 ± 0.15	18.3 ± 0.12	14.52 ± 0.1	11.63 ± 0.08	9.592 ± 0.066
101 kPa, x1 = 0.4489	28.48 ± 0.19	23.28 ± 0.15	17.57 ± 0.12	13.92 ± 0.09	11.4 ± 0.08
101 kPa, x1 = 0.6118	47.9 ± 0.31	35.02 ± 0.23	27.68 ± 0.18	21.38 ± 0.14	17.22 ± 0.11
101 kPa, x1 = 0.6989	56.8 ± 0.31	42.27 ± 0.27	33.27 ± 0.22	25.42 ± 0.17	20.24 ± 0.13
101 kPa, x1 = 0.7986	67.85 ± 0.5	51.92 ± 0.26	38.78 ± 0.25	29.8 ± 0.19	23.4 ± 0.15
101 kPa, x1 = 0.8971	82.56 ± 0.83	62.2 ± 0.39	46.95 ± 0.3	35.92 ± 0.23	27.87 ± 0.18
101.3 kPa, x2 = 0.045	–	–	–	–	28.95 ± 0.14
101.3 kPa, x2 = 0.2499	–	–	–	–	20.85 ± 0.11

CCCCCCCCCC(=O)O + CCCCCCCCCCCCCCCC
100 kPa, x2 = 0.6321
Settings	viscosity [mPa·s]
298.2 K	4.1 ± 0.25
308.2 K	3.09 ± 0.19
318.2 K	2.41 ± 0.15

CCCCCCCCCC(=O)O + CCCCCCCCCCCCCC
100 kPa, x2 = 0.8601
Settings	viscosity [mPa·s]
298.2 K	2.37 ± 0.14
308.2 K	1.9 ± 0.12
318.2 K	1.54 ± 0.09

c1c[nH]cn1 + O
viscosity [mPa·s], 100 kPa
Settings	x1 = 0.0286	x1 = 0.0621	x1 = 0.102	x1 = 0.15	x1 = 0.209
298.15 K	1.058 ± 0.043	1.242 ± 0.05	1.47 ± 0.06	1.737 ± 0.071	2.14 ± 0.09
303.15 K	0.944 ± 0.038	1.103 ± 0.045	1.301 ± 0.054	1.541 ± 0.064	1.881 ± 0.078
313.15 K	0.771 ± 0.031	0.892 ± 0.036	1.043 ± 0.043	1.261 ± 0.052	1.543 ± 0.064
323.15 K	0.647 ± 0.026	0.742 ± 0.03	0.862 ± 0.036	1.034 ± 0.043	1.254 ± 0.052
